Results on six molecules are retold here after US9902783B2, “Antibodies and pharmaceutical compositions containing same useful for inhibiting activity of metalloproteins” (Yeda Research and Development Co. Ltd., priority 2007, dated 2018).

For data set [1] the following is noted: patients; cited from earlier work.
The test system of a further data set is metastasis. As to conditions: phase III, advanced cancer patients; cited from earlier work.
Another data set deals with MT1-MMP (Homo sapiens, UniProt P50281). The conditions noted are these: cited from earlier work.
In data set [2] the test system is cell surface gelatinolytic activity of HT1080 cells. As to the kind of experiment: in situ zymography with DQ-gelatin. The conditions noted are these: 15 μM SB-3CT. The data set is classed as cell-based, human. Here is the method:
To localize net gelatinolytic activity of MMPs by in situ zymography, fluorescein isothiocyanate-labeled DQ gelatin that is intramolecularly quenched (Molecular Probes) was used as a substrate for degradation by gelatinases. Proteolysis by gelatinases yields cleaved fluorescein isothiocyanate-gelatin peptides and the localization of this fluorescence indicates the sites of net gelatinolytic activity. Briefly, Human fibrosarcoma HT1080 cells (which produce MMP-2, MMP-9 and MT1-MMP) were plated on 12-mm coverslips. […] Untreated cells served as negative control for this experiment. Cells were washed with PBS and then incubated with zymography reaction buffer (0.05 M Tris-HCl, 0.15 M NaCl, 5 mM CaCl2, and 0.2 mM NaN3, pH 7.6, the high concentration of azide prevented the gelatin from being phagocytosed and thus allowing cell surface gelatinolytic activity to occur) containing 60 ug/ml DQ gelatin at 37° C. overnight. […] At the end of the incubation period, without fixation or further washes, gelatinolytic activity of the MMPs was localized and photographed by fluorescence microscopy and images were acquired by Spot digital camera.
To confirm the inhibitory activity of anti CoTCPP mAb at cellular level, the effect of the antibody was examined on gelatinolytic activity of human fibrosarcoma HT1080 cells that constitutively secrete MMP-2 and 9 by in situ zymography. To localize gelatinolytic activity of MMPs by in situ zymography, fluorescein isothiocyanate-labeled gelatin that is intramolecularly quenched (DQ-gelatin) was used as substrate. Proteolysis by gelatinases yields cleaved fluorescein isothiocyanate-gelatin peptides and the localization of this fluorescence indicates the sites of net gelatinolytic activity.

The conditions of data set [3]: peptide-based hydroxamate; cited from earlier work.
Data set [4] is described as follows: competitive ELISA, affinity of mAbs toward their immunizing hapten. As to conditions: concentration of soluble hapten for 50% binding. Here is the method: Supernatants of the growing hybridomas were screened for antibodies reactive with ZnTCPP, CoTCPP or Imisdp using direct ELISA in which respective hapten-BSA (3 μg/ml in PBS) was coated to Nunc maxisorp plates. The coating was performed at 4° C. overnight and incubation with antibodies at 20° C. for 1 h. HRP-conjugated anti-mouse mAb (Sigma) was used as the secondary antibody and 2,2′-azino-bis (3-ethylbenzthiazoline-6-sulphonic acid, ABTS, Sigma) was used as substrate. PBS containing 0.005% v/v Tween 20 (PBST) was used as washing reagent. The dilution buffer was PBS. A602 was recorded by microplate reader in […]luor Plus spectrometer (Tecan, Austria). As control supernatants were incubated with BSA coated plates in the same manner Absorbance values above 0.5 millioptical density were considered as positive.
Different dilutions of hybridoma supernatant were incubated with hapten-BSA coated plates following the steps described earlier. Titration curve was plotted and the titer dilution was determined at 50% of binding. Supernatants diluted to the titer concentration were preincubated with soluble ZnTCPP, CoTCPP or Imisdp compounds for 30 minutes and then transferred to hapten-coated microtiter plates following the steps described previously. The estimated dissociation constant was the concentration of soluble hapten required to attain 50% binding.
In general terms: ELISA stands for enzyme-linked immunosorbent assay.

A further data set addresses TACE (ADAM-17) (Homo sapiens, UniProt P78536). As to the kind of experiment: kinetic assay with fluorogenic peptide QF-45, TACE. The data set is classed as biochemical. The conditions noted are these: Table 4.
The next data set deals with MMP-9. In words: kinetic assay with fluorogenic peptide substrate, MMP-9. Format: biochemical, human.
For another data set, the target named is MT1-MMP (MMP-14) (Homo sapiens, UniProt P50281). As to the kind of experiment: kinetic assay with fluorogenic peptide substrate, MT1-MMP. The data set is classed as biochemical. The conditions noted are these: Table 4.
A further data set relates to MMP-2. In words: kinetic assay with fluorogenic peptide substrate, MMP-2. Format: biochemical, human.

MMP-9, sequence (P14780 107-444 limits assumed): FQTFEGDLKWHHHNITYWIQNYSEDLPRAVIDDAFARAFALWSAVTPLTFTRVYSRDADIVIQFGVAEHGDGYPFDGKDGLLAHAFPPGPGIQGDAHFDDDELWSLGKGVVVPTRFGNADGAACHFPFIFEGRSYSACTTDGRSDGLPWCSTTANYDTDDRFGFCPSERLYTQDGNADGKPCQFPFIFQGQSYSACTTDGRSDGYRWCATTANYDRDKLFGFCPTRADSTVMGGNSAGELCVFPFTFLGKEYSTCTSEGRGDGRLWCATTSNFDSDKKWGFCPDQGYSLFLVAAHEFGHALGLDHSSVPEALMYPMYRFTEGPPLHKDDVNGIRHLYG
TACE (ADAM-17), sequence (P78536 215-824, species assumed): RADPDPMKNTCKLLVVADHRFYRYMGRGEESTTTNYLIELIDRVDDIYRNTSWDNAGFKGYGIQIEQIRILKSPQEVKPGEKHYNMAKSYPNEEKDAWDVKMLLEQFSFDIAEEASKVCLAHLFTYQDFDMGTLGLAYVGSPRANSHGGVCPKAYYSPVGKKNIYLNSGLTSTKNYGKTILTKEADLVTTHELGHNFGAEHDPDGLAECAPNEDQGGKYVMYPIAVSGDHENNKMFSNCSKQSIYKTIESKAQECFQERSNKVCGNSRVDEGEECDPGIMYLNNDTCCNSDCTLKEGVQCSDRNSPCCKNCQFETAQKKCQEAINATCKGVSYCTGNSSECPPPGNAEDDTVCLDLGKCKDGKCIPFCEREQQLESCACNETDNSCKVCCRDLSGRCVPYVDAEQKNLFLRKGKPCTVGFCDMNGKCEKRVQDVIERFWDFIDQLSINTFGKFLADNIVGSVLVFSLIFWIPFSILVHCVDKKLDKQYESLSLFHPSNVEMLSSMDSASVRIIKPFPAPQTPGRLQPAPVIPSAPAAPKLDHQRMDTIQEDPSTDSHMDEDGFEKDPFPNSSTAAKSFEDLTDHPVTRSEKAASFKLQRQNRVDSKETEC

In the case of `O=C(C[C@H](CSc1ccccc1)C(=O)O)c1ccc(-c2ccc(Cl)cc2)cc1` [BAY12-9566], in data set [1], the severe side effects entry was “liver abnormalities, anemia, shoulder and back pain, thrombocytopenia, nausea, fatigue, diarrhea and deep vein thrombosis”. In addition, the “clinical efficacy in inhibiting metastasis” value with metastasis is recorded as “no clinical efficacy”.
For the molecule `COc1ccc(S(=O)(=O)N(Cc2cccnc2)[C@@H](C(=O)NO)C(C)C)cc1` [CGS27023A], in data set [1], the severe side effects entry is reported as “widespread maculopapular rash”.
In general, Ki refers to the equilibrium dissociation constant of an inhibitor or competing ligand from its target. Regarding `O=S(=O)(CC1CS1)c1ccc(Oc2ccccc2)cc1` (stereo not drawn) [SB-3CT, reference compound], the Ki at MT1-MMP was 0.11 µM. In addition, in [2], the “cell surface gelatinolytic activity” value is given as “inhibition observed”.
Turning to `CNC(=O)[C@H](Cc1ccccc1)NC(=O)[C@H](CC(C)C)[C@H](CSc1cccs1)C(=O)NO` [batimastat], the “metabolic stability and oral bioavailability” value in [3] is “low”.
For `CNC(=O)[C@@H](NC(=O)[C@H](CC(C)C)[C@H](O)C(=O)NO)C(C)(C)C` [marimastat], the severe side effects result in data set [1] is on record as “muscoloskeletal problems”. In addition, in the data set with metastasis, the “clinical efficacy in inhibiting metastasis” value was “no clinical efficacy”.

B1: 15E12: monoclonal antibody, IgG2a, raised against the hapten ZnTCPP (antibody)
heavy: EGPGLVAPSQSLSITCTVSGISLSSYDISWIRQPPGKGLEWLGVMETWSGGGTENYNSAFMETSRLSISKDNSKRQVFLNMETNSVQIDDTATYYCIGRLHYYGYWFLDVWDQG
light: EMETTQTPLSLPVSLGDQASISCRSSQSIVQSNGNTYLDWYLQKPGQSPKLLIYKVSNERFSGVPDRFSGSGSGTDFTLKISRVEADDLGVYYCFQGSHVPYTFGGG
modifications: 15E12 mAb heavy chain; 15E12 mAb light chain
notes: monoclonal antibody, IgG2a, raised against the hapten ZnTCPP
In general, Kd refers to the constant that tells how readily two partners part at equilibrium. The IC50 is the midpoint of a concentration-inhibition curve. A low value points to greater potency. On to B1, for which the Kd in data set [4] came to 0.01 µM. Moreover, the IC50 with TACE (ADAM-17), in the data set on MMP-9 (Table 4), with MT1-MMP (MMP-14) and with MMP-2 (Table 4) was greater than 30 µM in each case. In addition, the “inhibition of proteolytic activity of MMP-9” value with MMP-9 (continuous fluorometric assay) is on record as “did not show inhibitory effect”. Besides, in the data set with MMP-2 (continuous fluorometric assay), the “inhibition of proteolytic activity of MMP-2” value is reported as “did not show inhibitory effect”.
